Experimental data as given in ChEMBL document CHEMBL1268823, “Bernthsen synthesis, antimicrobial activities and cytotoxicity of acridine derivatives” (Bioorg Med Chem Lett, 2010).
In brackets after ≈: the same amount, converted by molar mass.

Tests used:
Escherichia coli = test: Antimicrobial activity against Escherichia coli by agar plate disk diffusion method; type: functional
Streptococcus pyogenes = test: Antimicrobial activity against Streptococcus pyogenes by agar plate disk diffusion method; type: functional
Pseudomonas aeruginosa = test: Antimicrobial activity against Pseudomonas aeruginosa by agar plate disk diffusion method; type: functional
Aspergillus niger = test: Antifungal activity against Aspergillus niger by agar plate disk diffusion method; type: functional
HL-60 = test: Cytotoxicity against human HL60 cells by MTT assay; type: functional, cell-based
HEK-293T = test: Cytotoxicity against human HEK293T cells by MTT assay; type: functional, cell-based
Staphylococcus aureus = test: Antimicrobial activity against Staphylococcus aureus by agar plate disk diffusion method; type: functional
HEp-2 = test: Cytotoxicity against human Hep2 cells by MTT assay; type: functional, cell-based

Compound | MIC (Escherichia coli) | MIC (Streptococcus pyogenes) | MIC (Pseudomonas aeruginosa) | MIC (Aspergillus niger) | IC50 (HL-60) | IC50 (HEK-293T) | MIC (Staphylococcus aureus) | IC50 (HEp-2)
O=c1cc(Cc2c3ccccc3nc3ccccc23)c2ccc([N+](=O)[O-])cc2o1 | 100 mg/L (≈ 262 µM) | 500 mg/L (≈ 1310 µM) | 200 mg/L (≈ 523 µM) | 500 mg/L (≈ 1310 µM) | > 100 µM | > 100 µM | 250 mg/L (≈ 654 µM) | > 100 µM
COC1=CC(=O)C[C@@H](C)[C@]12Oc1c(Cl)c(OC)cc(OC)c1C2=O [GRISEOFULVIN] | – | – | – | 100 mg/L (≈ 283 µM) | – | – | – | –
O=c1cc(Cc2c3ccccc3nc3ccccc23)c2ccccc2o1 | 250 mg/L (≈ 741 µM) | 250 mg/L (≈ 741 µM) | 250 mg/L (≈ 741 µM) | 500 mg/L (≈ 1480 µM) | > 100 µM | > 100 µM | 250 mg/L (≈ 741 µM) | > 100 µM
O=P1(N(CCCl)CCCl)NCCCO1 (stereo not drawn) [CYCLOPHOSPHAMIDE ANHYDROUS] | – | – | – | – | 8.79 µM | > 100 µM | – | > 100 µM
Cc1ccc2c(Cc3c4ccccc4nc4ccccc34)cc(=O)oc2c1 | 150 mg/L (≈ 427 µM) | 50 mg/L (≈ 142 µM) | 62.5 mg/L (≈ 178 µM) | 1000 mg/L (≈ 2850 µM) | > 100 µM | > 100 µM | 500 mg/L (≈ 1420 µM) | > 100 µM
O=c1cc(Cc2c3ccccc3nc3ccccc23)c2cc(O)ccc2o1 | 50 mg/L (≈ 141 µM) | 250 mg/L (≈ 707 µM) | 100 mg/L (≈ 283 µM) | – | > 100 µM | > 100 µM | 500 mg/L (≈ 1410 µM) | > 100 µM
O=C(N[C@H](CO)[C@H](O)c1ccc([N+](=O)[O-])cc1)C(Cl)Cl [CHLORAMPHENICOL] | 50 mg/L (≈ 155 µM) | 50 mg/L (≈ 155 µM) | 50 mg/L (≈ 155 µM) | – | – | – | 50 mg/L (≈ 155 µM) | –
Cc1ccc2oc(=O)cc(Cc3c4ccccc4nc4ccccc34)c2c1 | 125 mg/L (≈ 356 µM) | 100 mg/L (≈ 285 µM) | 125 mg/L (≈ 356 µM) | 500 mg/L (≈ 1420 µM) | > 100 µM | > 100 µM | 125 mg/L (≈ 356 µM) | > 100 µM
CCn1cc(C(=O)O)c(=O)c2cc(F)c(N3CCNCC3)cc21 [NORFLOXACIN] | 10 mg/L (≈ 31.3 µM) | 10 mg/L (≈ 31.3 µM) | 10 mg/L (≈ 31.3 µM) | – | – | – | 10 mg/L (≈ 31.3 µM) | –
CC1(C)S[C@@H]2[C@H](NC(=O)[C@H](N)c3ccccc3)C(=O)N2[C@H]1C(=O)O [AMPICILLIN] | 100 mg/L (≈ 286 µM) | 100 mg/L (≈ 286 µM) | 100 mg/L (≈ 286 µM) | – | – | – | 250 mg/L (≈ 715 µM) | –
O=c1cc(Cc2c3ccccc3nc3ccccc23)c2ccc(Cl)cc2o1 | 50 mg/L (≈ 134 µM) | 250 mg/L (≈ 672 µM) | 500 mg/L (≈ 1340 µM) | 1000 mg/L (≈ 2690 µM) | 27.5 µM | > 100 µM | 50 mg/L (≈ 134 µM) | > 100 µM
O=c1cc(Cc2c3ccccc3nc3ccccc23)c2cc(Cl)ccc2o1 | 75 mg/L (≈ 202 µM) | 75 mg/L (≈ 202 µM) | 25 mg/L (≈ 67.2 µM) | 1000 mg/L (≈ 2690 µM) | 28.7 µM | > 100 µM | 250 mg/L (≈ 672 µM) | > 100 µM
NYSTATIN | – | – | – | 100 mg/L | – | – | – | –
O=C(O)c1cn(C2CC2)c2cc(N3CCNCC3)c(F)cc2c1=O [CIPROFLOXACIN] | 25 mg/L (≈ 75.4 µM) | 50 mg/L (≈ 151 µM) | – | – | – | – | 50 mg/L (≈ 151 µM) | –
O=c1cc(Cc2c3ccccc3nc3ccccc23)c2ccc(O)cc2o1 | 200 mg/L (≈ 566 µM) | 500 mg/L (≈ 1410 µM) | 250 mg/L (≈ 707 µM) | > 1000 mg/L | > 100 µM | > 100 µM | 500 mg/L (≈ 1410 µM) | > 100 µM
